In the test the test system is C. elegans. The settings on record: Table S2, C. elegans SS assay, 110 μM, averages of 4 data points.

“And” between values parts separate entries of the source, which are not always exact repeats. Equal values may be shown once. Where a name gives a salt, the structure may show the parent alone. Where a SMILES comes first, the peptide text is derived from it. The star is where a group is joined. βNA = c1ccc2cc(N*)ccc2c1

Take `Cl.Cl.NC(N)=NCCC[C@H](NC(=O)[C@@H](N)Cc1ccccc1)C(=O)Nc1ccc2ccccc2c1` [PAβN (dihydrochloride)] (H-Phe-Arg-βNA): the “Percentage of motility inhibition 0 h” value amounted to 9% and the “Percentage of motility inhibition 24 h” value was determined as 6%.
In the same order, the values of `O=C1C[C@@H](c2ccccc2)Oc2cc(O[C@@H]3O[C@H](CO)[C@@H](O)[C@H](O)[C@H]3O)cc(O)c21` [Pinocembrin‐7‐O‐β‐D‐glucopyranoside] are 0% and 17%.
On the same counts, the results for `C[C@H](CCC(=O)NCCS(=O)(=O)[O-])[C@H]1CC[C@H]2[C@@H]3CC[C@@H]4C[C@H](O)CC[C@]4(C)[C@H]3C[C@H](O)[C@]12C.[Na+]` [Taurodeoxycholic acid (sodium hydrate)] are 8% and 3%.
As for `COc1cc2c(cc1O)CC[N+](C)(C)[C@@H]2Cc1ccc(O)cc1.[OH-]` [Lotusine (hydroxide)], the “Percentage of motility inhibition 0 h” value is recorded as 4% and the “Percentage of motility inhibition 24 h” value was 0%.
Regarding `CC(C)=CCC[C@@](C)(O)[C@H]1CC[C@]2(C)[C@@H]1[C@H](O)C[C@@H]1[C@@]3(C)C[C@@H](O)[C@H](O[C@@H]4O[C@H](CO)[C@@H](O)[C@H](O)[C@H]4O[C@@H]4O[C@H](CO)[C@@H](O)[C@H](O)[C@H]4O)C(C)(C)[C@@H]3CC[C@]12C` [Gypenoside LI], the “Percentage of motility inhibition 0 h” value came to 0% and the “Percentage of motility inhibition 24 h” value is 0%.
On to `CN[C@@H](C)[C@H]1[C@H](O)C[C@@]2(C)[C@@H]3CC[C@H]4C(C)(C)[C@@H](NC)CC[C@@]45C[C@@]35CC[C@]12C` [Cyclovirobuxine D], for which the “Percentage of motility inhibition 0 h” value was determined as 20% and the “Percentage of motility inhibition 24 h” value is 0%.
On the same counts, the results for `C=C1C(=O)O[C@@H]2/C=C(/C)C(OC(C)=O)C/C=C(/C=O)CC(OC(=O)/C(C)=C/CO)[C@@H]12` (some centres unmarked) [Eupalinolide O] are 1% and 9%.
Consider `COc1cc2c(cc1O)-c1c(OC)c(O)cc3c1[C@H](C2)NCC3` [Laetanine], for which the “Percentage of motility inhibition 0 h” value was determined as 0% and the “Percentage of motility inhibition 24 h” value was 0%.
Consider `CC(C)=CCC[C@H](C)CC=O` [(S)-(-)-Citronellal], for which the “Percentage of motility inhibition 0 h” value stood at 18% and the “Percentage of motility inhibition 24 h” value is on record as 61%.
In the same order, the values of `CC1=CC[C@@]23C[C@@H]1C(C)(C)[C@@H]2CC[C@H]3C` [(-)-Cedrene] are 0% and 17%.
On the same counts, the results for `C/C1=C\[C@@H]2[C@H](C/C=C(/CO)[C@@H](O)[C@@H]3[C@@H](O)[C@@H](C)C[C@]3(O)C1=O)C2(C)C` [17-Hydroxyisolathyrol] are 13% and 29%.
Turning to `O=c1c(O[C@@H]2O[C@H](CO[C@@H]3O[C@H](CO)[C@@H](O)[C@H](O)[C@H]3O)[C@@H](O)[C@H](O)[C@H]2O)c(-c2ccc(O)c(O)c2)oc2cc(O)cc(O)c12` [Quercetin 3‐gentiobioside], the “Percentage of motility inhibition 0 h” value came to 42% and the “Percentage of motility inhibition 24 h” value was determined as 0%.
Consider `COc1cc2c(cc1OC)C(Cc1ccc(O)cc1)N(C)CC2` (centres unmarked) [Armepavine], for which the “Percentage of motility inhibition 0 h” value turned out to be 0% and the “Percentage of motility inhibition 24 h” value worked out at 12%.
Turning to `COc1cc2c(cc1OC)-c1c(C)c3ccc(OC)c(OC)c3c[n+]1CC2.O=[N+]([O-])[O-]` [Dehydrocorydaline (nitrate)], the “Percentage of motility inhibition 0 h” value is given as 5% and the “Percentage of motility inhibition 24 h” value is reported as 0%.
On the same counts, the results for `C[C@H]1CC[C@]2(C(=O)O)CC[C@]3(C)C(=CC[C@@H]4[C@@]5(C)CC[C@H](O[C@@H]6OC[C@@H](O)[C@H](O)[C@H]6O[C@@H]6O[C@H](CO)[C@@H](O)[C@H](O)[C@H]6O)C(C)(C)[C@@H]5CC[C@]43C)[C@@H]2[C@]1(C)O` [Ilexoside D] are 0% and 22%.
On the same counts, the results for Bavachinin are 0% and 2%.
As for `CC[C@]1(O)C[C@H]2CN(CCc3c([nH]c4ccccc34)[C@@](C(=O)OC)(c3cc4c(cc3OC)N(C=O)[C@H]3[C@@](O)(C(=O)OC)[C@H](OC(C)=O)[C@]5(CC)C=CCN6CC[C@]43[C@@H]65)C2)C1.O=S(=O)(O)O` [Vincristine (sulfate)], the “Percentage of motility inhibition 0 h” value was found to be 0%; the “Percentage of motility inhibition 24 h” value was 0% and 7%.
Regarding `O[C@H]1CCN2Cc3ccccc3N=C12` (racemic) [(±)‐Vasicine], the “Percentage of motility inhibition 0 h” value was found to be 3% and the “Percentage of motility inhibition 24 h” value was determined as 31%.
In the same order, the values of `COc1cc(-c2cc(=O)c3c(O)c(OC)c(O)cc3o2)ccc1O` [Jaceosidin] are 0% and 5%.
On the same counts, the results for `Nc1ccc(C(=O)[O-])c(O)c1.O.O.[Na+]` are 24% and 6%.
On to `CC1(C)[C@@H](O[C@@H]2O[C@H](C(=O)O)[C@@H](O)[C@H](O)[C@H]2O)CC[C@]2(C)[C@H]3C(=O)C=C4[C@@H]5C[C@@](C)(C(=O)O)CC[C@]5(C)CC[C@@]4(C)[C@]3(C)CC[C@@H]12` [Glycyrrhetic acid 3-O-β-D-glucuronide], for which the “Percentage of motility inhibition 0 h” value is recorded as 2% and the “Percentage of motility inhibition 24 h” value is listed as 22%.
On the same counts, the results for `OC[C@H]1O[C@@H](Oc2cc3c(O)cc(O)cc3[o+]c2-c2ccc(O)c(O)c2)[C@H](O)[C@@H](O)[C@@H]1O.[Cl-]` [Kuromanin (chloride)] are 34% and 5%.
In the same order, the values of `COc1ccc(C[C@H](N)C(=O)N[C@H]2[C@@H](O)[C@H](n3cnc4c(N(C)C)ncnc43)O[C@@H]2CO)cc1.Cl.Cl` [Puromycin (D ihydrochloride)] are 13% and 14%.
In the same order, the values of Penitrem A are 0% and 14%.
With `O=C(O)[C@H]1O[C@@H](Oc2cc(O)c3c(=O)cc(-c4ccccc4)oc3c2)[C@H](O)[C@@H](O)[C@@H]1O` [Chrysin‐7‐O‐glucuronide], the “Percentage of motility inhibition 0 h” value turned out to be 0% and the “Percentage of motility inhibition 24 h” value is 37%.
On the same counts, the results for `C=C1C[C@@]23CC[C@H]4[C@@](C)(CCC[C@@]4(C)C(=O)O[C@@H]4O[C@H](CO)[C@@H](O)[C@H](O[C@@H]5O[C@H](CO)[C@@H](O)[C@H](O)[C@H]5O)[C@H]4O[C@@H]4O[C@H](CO)[C@@H](O)[C@H](O)[C@H]4O)[C@@H]2CC[C@]1(O[C@@H]1O[C@H](CO)[C@@H](O)[C@H](O[C@@H]2O[C@H](CO)[C@@H](O)[C@H](O)[C@H]2O)[C@H]1O[C@@H]1O[C@H](CO)[C@@H](O)[C@H](O)[C@H]1O)C3` [Rebaudioside M] are 7% and 0%.
In the same order, the values of Oxypaeoniflorin are 0% and 0%.
On to `COc1cc2c3cc1Oc1c(OC)c(OC)cc4c1[C@@H](Cc1ccc(O)c(c1)Oc1ccc(cc1)C[C@@H]3N(C)CC2)N(C)CC4` [Berbamine (dihydrochloride)], for which the “Percentage of motility inhibition 0 h” value is 33% and 53%; the “Percentage of motility inhibition 24 h” value is 11% and 15%.
`C=C1C[C@@]23CC[C@H]4[C@@](C)(CCC[C@@]4(C)C(=O)O)[C@@H]2CC[C@]1(O[C@@H]1O[C@H](CO)[C@@H](O)[C@H](O)[C@H]1O[C@@H]1O[C@H](CO)[C@@H](O)[C@H](O)[C@H]1O)C3` [Steviolbioside]: the “Percentage of motility inhibition 0 h” value came out at 10% and the “Percentage of motility inhibition 24 h” value is 5%.
Regarding `COc1cc2c(cc1O)CC[n+]1cc3c(OC)c(OC)ccc3cc1-2.[OH-]` [Jatrorrhizine (hydroxide)], the “Percentage of motility inhibition 0 h” value came out at 8% and the “Percentage of motility inhibition 24 h” value is 5%.
In the same order, the values of `CN(C)[C@@H]1C(=O)C(C(N)=O)=C(O)[C@@]2(O)C(=O)C3=C(O)c4c(O)ccc(Cl)c4[C@@](C)(O)[C@H]3C[C@@H]12.Cl` [Chlortetracycline (hydrochloride)] are 24% and 5%.
In the case of `C=C(C)[C@@H]1CC=C(CO)CC1` [(S)-(−)-Perillyl alcohol], the “Percentage of motility inhibition 0 h” value is 36% and the “Percentage of motility inhibition 24 h” value came out at 35%.
Turning to `CC1(C)S[C@@H]2[C@H](NC(=O)[C@H](N)c3ccc(O)cc3)C(=O)N2[C@H]1C(=O)[O-].[Na+]` [Amoxicillin (sodium)], the “Percentage of motility inhibition 0 h” value came to 29% and the “Percentage of motility inhibition 24 h” value is 10%.
On the same counts, the results for `CC(C)=CCC[C@](C)(O)[C@H]1CC[C@]2(C)[C@@H]1[C@H](O)C[C@@H]1[C@@]3(C)CC[C@H](O)C(C)(C)[C@@H]3CC[C@]12C` [(20S)-Protopanaxadiol] are 21% and 10%.
For the molecule `COc1ccc(-c2oc3c(CC=C(C)C)c(O[C@@H]4O[C@H](CO)[C@@H](O)[C@H](O)[C@H]4O)cc(O)c3c(=O)c2O)cc1` [Icariside I], the “Percentage of motility inhibition 0 h” value is 0% and the “Percentage of motility inhibition 24 h” value worked out at 23%.
Turning to `C[C@@H](O)[C@H]1C(=O)N2C(C(=O)[O-])=C(S[C@@H]3CN[C@H](C(=O)Nc4cccc(C(=O)O)c4)C3)[C@H](C)[C@H]12.[Na+]` [Ertapenem sodium], the “Percentage of motility inhibition 0 h” value is listed as 0% and the “Percentage of motility inhibition 24 h” value was found to be 0%.
As for `OCC1=C[C@@H](O)[C@]2(O[C@@H]3O[C@H](CO)[C@@H](O)[C@H](O)[C@H]3O[C@@H]3O[C@H](CO)[C@@H](O)[C@H](O)[C@H]3O)C=CO[C@@H](O[C@@H]3O[C@H](CO)[C@@H](O)[C@H](O)[C@H]3O)[C@H]12` [Rehmannioside D], the “Percentage of motility inhibition 0 h” value turned out to be 11% and the “Percentage of motility inhibition 24 h” value amounted to 35%.

The values are drawn from publication PMC11855827, “High-Throughput Screening of Five Compound Libraries for Anthelmintic Activity and Toxicity Leads to the Discovery of Two Flavonoid Compounds” (International Journal of Molecular Sciences, 2025).
